Experimental data as given in US8227511B2, “Substituted chromanol derivatives and their use” (Bayer Intellectual Property GmbH, priority 2006, dated 2012).

What was measured:
CETP [1] = biological target: T1, CETP (Homo sapiens, UniProt P11597); assay: CETP fluorescence test with enriched CETP; assay type: biochemical; settings: enriched CETP fraction from human plasma; transfer of fluorescent cholesterol ester between liposomes; 37° C. for 4 h
T1 construct: CETP is obtained in partially purified form from human plasma by differential centrifugation and column chromatography and used for the test; from tissue; host or cells: human plasma
T1 sequence (P11597 18-493): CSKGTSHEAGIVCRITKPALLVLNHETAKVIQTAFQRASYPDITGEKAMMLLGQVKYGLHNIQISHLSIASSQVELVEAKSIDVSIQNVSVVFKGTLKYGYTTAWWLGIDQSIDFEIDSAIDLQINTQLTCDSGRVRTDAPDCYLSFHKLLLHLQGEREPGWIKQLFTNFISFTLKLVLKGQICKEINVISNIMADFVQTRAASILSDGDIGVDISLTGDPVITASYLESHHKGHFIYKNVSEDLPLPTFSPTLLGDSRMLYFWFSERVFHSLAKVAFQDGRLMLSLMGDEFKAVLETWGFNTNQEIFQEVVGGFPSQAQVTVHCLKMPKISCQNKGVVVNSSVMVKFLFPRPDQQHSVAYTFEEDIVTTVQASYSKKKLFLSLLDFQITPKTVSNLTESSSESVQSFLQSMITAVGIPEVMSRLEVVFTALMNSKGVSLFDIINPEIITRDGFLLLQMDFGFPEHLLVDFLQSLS
Experimental: (§1) CETP is obtained in partially purified form from human plasma by differential centrifugation and column chromatography and used for the test. To this end, human plasma is adjusted to a density of 1.21 g per ml using NaBr and centrifuged at 4° C. at 50 000 rpm for 18 h. The bottom fraction (d>1.21 g/ml) is applied to a Phenyl-Sepharose 26/10 HP fast flow-column (Pharmacia), washed with PBS buffer and then eluted with distilled water. 10 parts of PBS buffer and 1% (w/v) BSA are added to the eluate. The CETP-active fractions are pooled.
Measurement of the CETP-catalyzed transfer of a fluorescent cholesterol ester between liposomes [modified according to the procedure of Bisgaier et al., J. Lipid Res. 34, 1625 (1993)]:
For the production of the donor liposomes, 1 mg of cholesteryl 4,4-difluoro-5,7-dimethyl-4-bora-3a,4a-diaza-s-indacene-3-dodecanoate (cholesteryl BODIPY® FL C12, Molecular Probes) is dissolved in 2 ml of chloroform with 5.35 mg of triolein and 6.67 mg of phosphatidylcholine. The solvent is removed at medium temperature in a SpeedVac and the residue is dried under high vacuum for 1 h. The residue is then dissolved in 600 μl of dioxane with gentle warming in an ultrasonic bath and this solution is added very slowly with ultrasonication to 63 ml of 50 mM Tris/HCl, 150 mM NaCl, 2 mM EDTA buffer pH 7.3 at room temperature. The suspension is then ultrasonicated under an N2 atmosphere for 30 minutes in the Branson ultrasonic bath at about 50 watts, the temperature being kept at about 20° C.
The acceptor liposomes are obtained analogously from 86 mg of cholesteryl oleate, 20 mg of triolein and 100 mg of phosphatidylcholine dissolved in 1.2 ml of dioxane and 114 ml of the above buffer by ultrasonication at 50 watts (20° C.) for 30 minutes.
For testing, a test mix consisting of 1 part of above buffer, 1 part of donor liposomes and 2 parts of acceptor liposomes is used.
50 μl of test mix are treated with 48 μl of enriched CETP fraction (1-3 μg), obtained from human plasma by means of hydrophobic chromatography, and 2 μl of a solution of the substance to be investigated in DMSO and incubated at 37° C. for 4 h.
The change in the fluorescence at 485/535 nm is a measure of the CE transfer; the inhibition of the transfer in comparison to the control batch without substance is determined.

CETP [2] = biological target: T1, CETP; assay: CETP-SPA test; assay type: biochemical; settings: transfer of 3H-cholesterol ester from human HDL to biotinylated LDL; 37° C. for 18 h
Experimental: as §1
For testing of the CETP activity, the transfer of ^3H-cholesterol ester from human HD lipoproteins to biotinylated LD lipoproteins is measured. The reaction is ended by addition of streptavidin-SPA® beads (Amersham) and the transferred radioactivity is determined directly in a liquid scintillation counter.
In the test batch, 10 μl of HDL-3H-cholesterol ester (about 50 000 cpm) are incubated at 37° C. for 18 h with 10 μl of biotin-LDL (Amersham) in 50 mM Hepes/0.15 M NaCl/0.1% bovine serum albumin (RSA)/0.05% NaN3 pH 7.4 containing 10 μl of CETP (1 mg/ml) and 3 μl of a solution of the substance to be tested (dissolved in 10% DMSO/1% RSA). 200 μl of the SPA-streptavidin bead solution (TRKQ 7005) are then added, incubated further with shaking for 1 h and then measured in a scintillation counter. Corresponding incubations with 10 μl of buffer, 10 μl of CETP at 4° C. and 10 μl of CETP at 37° C. serve as controls.
The activity transferred in the control batches with CETP at 37° C. is rated as 100% transfer. The substance concentration at which this transfer is reduced to half is specified as the IC50 value.

IC50 (CETP [1])	IC50 (CETP [2])	Compound
30 nM	16 nM	CC(C)c1cc2c(c(C3CCCC3)c1[C@@H](O)c1ccc(C(F)(F)F)cc1)[C@@H](O)CC(C)(C)O2 [Example 24, (4S)-5-Cyclopent-1-yl-6-{(S)-hydroxy[4-(trifluoromethyl)phenyl]methyl}-7-isopropyl-2,2-dimethylchroman-4-ol]
50 nM	38 nM	CC(C)(C)c1ccc(C(=O)c2c(C3CCCC3)cc3c(c2-c2ccc(F)cc2)[C@@H](O)CC2(CCC2)O3)cc1 [Example 47]
63 nM	51 nM	CC(C)c1cc2c(c(-c3ccc(F)cc3)c1[C@@H](O)c1ccc(OC(F)(F)F)cc1)[C@@H](O)CC(C)(C)O2 [Example 11, (4S)-5-(4-Fluorophenyl)-6-{(S)-hydroxy[4-(trifluoromethoxy)phenyl]methyl}-7-isopropyl-2,2-di-methylchroman-4-ol]
53 nM	20 nM	CC(C)c1cc2c(c(-c3ccc(F)cc3)c1[C@H](F)c1ccc(C(F)(F)F)cc1)[C@@H](O)CC1(CCC1)O2 [Example 31, (4S)-5-(4-fluorophenyl)-6-{(R)-fluoro[4-(trifluoromethyl)phenyl]methyl}-7-isopropyl-3,4-dihydro-spiro[chromen-2,1′-cyclobutan]-4-ol]
90 nM	33 nM	CC(C)c1cc2c(c(-c3ccc(F)cc3)c1Cc1ccc(C(F)(F)F)cc1)[C@@H](O)CC(C)(C)O2 [Example 9, (4S)-5-(4-Fluorophenyl)-7-isopropyl-2,2-dimethyl-6-[4-(trifluoromethyl)benzyl]chroman-4-ol]
90 nM	62 nM	CC(C)c1cc2c(c(-c3ccc(F)cc3)c1C(=O)c1ccc(C(F)(F)F)cc1)[C@@H](O)CC(C)(C)O2 [Example 4, [(4S)-5-(4-Fluorophenyl)-4-hydroxy-7-isopropyl-2,2-dimethyl-3,4-dihydro-2H-chromen-6-yl][4-(trifluoromethyl)phenyl]methanone]
42 nM	100 nM	O=C(c1ccc(OC(F)(F)F)cc1)c1c(C2CCCC2)cc2c(c1-c1ccc(F)cc1)[C@@H](O)CC1(CCC1)O2 [Example 51]
33 nM	14 nM	CC(C)(C)c1ccc([C@H](O)c2c(C3CCCC3)cc3c(c2-c2ccc(F)cc2)[C@@H](O)CC2(CCC2)O3)cc1 [Example 48]
27 nM	4 nM	CC(C)c1cc2c(c(-c3ccc(F)cc3)c1[C@@H](O)c1ccc(C(F)(F)F)cc1)[C@@H](O)CC1(CC1)O2 [Example 55]
36 nM	30 nM	CC(C)c1cc2c(c(-c3ccc(F)cc3)c1C(=O)c1ccc(OC(F)(F)F)cc1)[C@@H](O)CC1(CCC1)O2 [Example 37, [(4S)-5-(4-Fluorophenyl)-4-hydroxy-7-isopropyl-3,4-dihydrospiro[chromen-2,1′-cyclobutan]-6-yl]-[4-(trifluoromethoxy)phenyl]methanone]
198 nM	30 nM	O[C@@H](c1ccc(OC(F)(F)F)cc1)c1c(C2CCCC2)cc2c(c1-c1ccc(F)cc1)[C@@H](O)CC1(CCC1)O2 [Example 52]
200 nM	300 nM	CC(C)c1cc2c(c(C3=CCCCC3)c1C(=O)c1ccc(C(F)(F)F)cc1)[C@@H](O)CC(C)(C)O2 [Example 19, (5-Cyclohex-1-en-1-yl-4-hydroxy-7-isopropyl-2,2-dimethyl-3,4-dihydro-2H-chromen-6-yl)[4-(tri-fluoromethyl)phenyl]methanone]
35 nM	29 nM	CC(C)c1cc2c(c(-c3ccc(F)cc3)c1[C@@H](O)c1ccc(C(F)(F)F)cc1)[C@@H](O)CC(C)(C)O2 [Example 5, (4S)-5-(4-Fluorophenyl)-6-{(S)-hydroxy[4-(trifluoromethyl)phenyl]methyl}-7-isopropyl-2,2-di-methylchroman-4-ol]
–	400 nM	CC(C)(C)c1ccc([C@@H](O)c2c(C3CCCC3)cc3c(c2-c2ccc(F)cc2)[C@@H](O)CC2(CCC2)O3)cc1 [Example 49]
800 nM	400 nM	CC(C)c1cc2c(c(-c3ccc(F)cc3)c1[C@H](O)c1ccc(C(C)(C)C)cc1)[C@@H](O)CC1(CCC1)O2 [Example 35, (4S)-6-[(R)-(4-tert-butylphenyl)(hydroxy)methyl]-5-(4-fluorophenyl)-7-isopropyl-3,4-dihydro-spiro[chromen-2,1′-cyclobutan]-4-ol]
26 nM	21 nM	O[C@@H](c1ccc(C(F)(F)F)cc1)c1c(C2CCCC2)cc2c(c1-c1ccc(F)cc1)[C@@H](O)CC1(CCC1)O2 [Example 45]
300 nM	68 nM	CC(C)c1cc2c(c(-c3ccc(F)cc3)c1[C@H](F)c1ccc(C(F)(F)F)cc1)[C@@H](O)CC1(CC1)O2 [Example 58]
19 nM	15 nM	CC(C)c1cc2c(c(-c3ccc(F)cc3)c1Cc1ccc(OC(F)(F)F)cc1)[C@@H](O)CC1(CCC1)O2 [Example 41, (4S)-5-(4-Fluorophenyl)-7-isopropyl-6-[4-(trifluoromethoxy)benzyl]-3,4-dihydrospiro[chromen-2,1′-cyclobutan]-4-ol]
14 nM	5 nM	CC(C)c1cc2c(c(-c3ccc(F)cc3)c1[C@@H](O)c1ccc(C(C)(C)C)cc1)[C@@H](O)CC1(CCC1)O2 [Example 34, (4S)-6-[(S)-(4-tert-Butylphenyl)(hydroxy)methyl]-5-(4-fluorophenyl)-7-isopropyl-3,4-dihydro-spiro[chromen-2,1′-cyclobutan]-4-ol]
45 nM	31 nM	O=C(c1ccc(C(F)(F)F)cc1)c1c(C2CCCC2)cc2c(c1-c1ccc(F)cc1)[C@@H](O)CC1(CCC1)O2 [Example 44]
51 nM	57 nM	CC(C)c1cc2c(c(C3=CCCC3)c1[C@@H](O)c1ccc(C(F)(F)F)cc1)[C@@H](O)CC(C)(C)O2 [Example 22, (4S)-5-Cyclopent-1-en-1-yl-6-{(S)-hydroxy[4-(trifluoromethyl)phenyl]methyl}-7-isopropyl-2,2-di-methylchroman-4-ol]
61 nM	100 nM	CC(C)c1cc2c(c(C3CCCC3)c1[C@H](F)c1ccc(C(F)(F)F)cc1)[C@@H](O)CC1(CCC1)O2 [Example 43, (4S)-5-cyclopentyl-6-{(R)-fluoro[4-(trifluoromethyl)phenyl]methyl}-7-isopropyl-3,4-dihydrospiro-[chroman-2,1′-cyclobutan]-4-ol]
59 nM	16 nM	CC(C)c1cc2c(c(-c3ccc(F)cc3)c1C(=O)c1ccc(C(C)(C)C)cc1)[C@@H](O)CC1(CCC1)O2 [Example 33, (4-tert-Butylphenyl)[(4S)-5-(4-fluorophenyl)-4-hydroxy-7-isopropyl-3,4-dihydrospiro[chromen-2,1′-cyclobutan]-6-yl]methanone]
